Data published in patent publication US11542313B2, “Incretin analogs and uses thereof” (Eli Lilly and Company, priority 2017, dated 2023).
*1 amine or outer side, *2 acyl side, *3 side chain or, on linkers, in order; H or OH if unused. Where a SMILES comes first, the peptide text is derived from it. Side-chain parts run from the residue outwards. [ ]: non-standard residue; d: D form. The star is where a group is joined. C20 diacid = O=C(O)CCCCCCCCCCCCCCCCCCC(=O)*; γGlu = O=C(O)[C@H](CCC(=O)[*:2])N[*:1]; αMeL = CC(C)C[C@](C)(N)C(=O)O; αMeK = C[C@](N)(CCCCN)C(=O)O; AEEA = NCCOCCOCC(=O)O; Aib = CC(C)(N)C(=O)O

Key:
hGcgR = molecular target: T1, hGcgR (Homo sapiens, UniProt P47871); assay: cAMP assay in HEK293 cells expressing hGcgR, 0.1% casein; type: cell-based; settings: in the presence of 0.1% casein; read-out: cAMP EC50, GcGR
T1 construct: expressed in transfected cells; host or cells: HEK293
T1 sequence (P47871 26-477): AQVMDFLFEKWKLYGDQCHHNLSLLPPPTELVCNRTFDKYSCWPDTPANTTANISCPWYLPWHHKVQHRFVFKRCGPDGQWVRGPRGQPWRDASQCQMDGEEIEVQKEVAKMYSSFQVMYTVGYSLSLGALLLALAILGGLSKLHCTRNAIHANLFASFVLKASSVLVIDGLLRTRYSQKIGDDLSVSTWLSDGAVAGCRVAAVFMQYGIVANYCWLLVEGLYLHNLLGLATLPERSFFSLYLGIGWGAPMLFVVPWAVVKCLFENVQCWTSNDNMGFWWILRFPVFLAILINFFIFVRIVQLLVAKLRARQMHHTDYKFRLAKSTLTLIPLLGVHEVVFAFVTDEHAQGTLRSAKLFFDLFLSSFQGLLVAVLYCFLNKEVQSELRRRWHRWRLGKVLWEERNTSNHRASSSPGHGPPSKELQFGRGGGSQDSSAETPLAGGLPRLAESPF

GLP-1 receptor (GLP-1R) = molecular target: T2, GLP-1 receptor (GLP-1R) (Homo sapiens, UniProt P43220); assay: Radioligand competition binding (SPA), human GLP-1R membranes; settings: HEK293 membranes, SPA, bacitracin present; mean; read-out: Ki, GLP-1R
T2 construct: expressed in transfected cells; host or cells: HEK293 (membranes)
T2 sequence (P43220 24-463): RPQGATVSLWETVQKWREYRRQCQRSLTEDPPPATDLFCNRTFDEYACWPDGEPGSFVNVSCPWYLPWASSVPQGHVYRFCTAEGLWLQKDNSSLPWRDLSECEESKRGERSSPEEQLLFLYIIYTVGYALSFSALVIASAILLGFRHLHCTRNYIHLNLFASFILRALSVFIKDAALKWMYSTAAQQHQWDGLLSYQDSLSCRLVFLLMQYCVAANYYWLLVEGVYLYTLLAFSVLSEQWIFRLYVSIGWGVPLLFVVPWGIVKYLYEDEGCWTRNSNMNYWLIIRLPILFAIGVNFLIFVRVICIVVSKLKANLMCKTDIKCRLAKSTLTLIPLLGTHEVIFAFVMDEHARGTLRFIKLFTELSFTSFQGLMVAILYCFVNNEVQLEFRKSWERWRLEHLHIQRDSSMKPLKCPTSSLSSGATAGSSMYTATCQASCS
Source text: (§1) Radioligand competition binding assays are run to determine the equilibrium dissociation constant for exemplary compounds and comparator molecules.
(§2) Competition curves are plotted as the percent specific inhibition (y-axis) versus log concentration of compound (x-axis) and analyzed using a four parameter nonlinear regression fit with variable slope (ABase or Genedata).

hGIPR = molecular target: T3, hGIPR (Homo sapiens, UniProt P48546); assay: cAMP assay in HEK293 cells expressing hGIPR, 0.1% casein; type: cell-based; settings: in the presence of 0.1% casein; read-out: cAMP EC50, GIPR
T3 construct: expressed in transfected cells; host or cells: HEK293
T3 sequence (P48546 22-466): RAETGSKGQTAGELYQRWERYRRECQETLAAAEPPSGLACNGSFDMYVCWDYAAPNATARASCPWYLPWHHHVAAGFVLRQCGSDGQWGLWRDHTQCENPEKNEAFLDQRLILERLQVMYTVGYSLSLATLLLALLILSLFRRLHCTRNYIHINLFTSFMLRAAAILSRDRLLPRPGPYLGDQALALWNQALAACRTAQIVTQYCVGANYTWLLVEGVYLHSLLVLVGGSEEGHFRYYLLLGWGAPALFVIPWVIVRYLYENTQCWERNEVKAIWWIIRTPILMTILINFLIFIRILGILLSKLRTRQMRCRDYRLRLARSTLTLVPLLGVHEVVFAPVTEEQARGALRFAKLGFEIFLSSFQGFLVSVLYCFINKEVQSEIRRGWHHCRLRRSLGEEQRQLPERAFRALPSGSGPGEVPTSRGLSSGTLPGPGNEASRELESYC

in vivo = settings: male, Sprague-Dawley, rat, sc, 100 nmol/kg
Experimental: (§3) The pharmacokinetics of the exemplary analogs are evaluated following a single subcutaneous administration of 100 nM/kg to male Sprague Dawley rats. Blood samples are collected over 120 hours, and resulting individual plasma concentrations are used to calculate pharmacokinetic parameters. Peptide plasma (K3 EDTA) concentrations are determined using a qualified LC/MS method that measured the intact mass of the analog. Each peptide and an analog as an internal standard are extracted from 100% specie specified plasma using methanol with 0.1% formic acid. A Thermo Q-Exactive, High Resolution Instrument, and a Thermo Easy Spray PepMap are combined for LC/MS detection.

hGLP-1R = hGLP-1R (Homo sapiens, UniProt P43220); assay: cAMP assay in HEK293 cells expressing hGLP-1R, 0.1% casein; type: cell-based; settings: in the presence of 0.1% casein; read-out: cAMP EC50, GLP-1R
hGLP-1R, sequence (P43220 24-463): as the sequence (P43220 24-463) above

[1] = molecular target: T4, human GIP receptor (GIPR) (Homo sapiens, UniProt P48546); assay: Radioligand competition binding (SPA), human GIPR membranes; settings: HEK293 membranes, SPA, bacitracin present; mean; read-out: Ki, GIPR
T4 construct: expressed in transfected cells; host or cells: HEK293 (membranes)
T4 sequence (P48546 22-466): T3 sequence (P48546 22-466)
Source text: as §1, §2

[2] = rat, in vivo, sc, 100 nmol/kg
Experimental: as §3

[3] = molecular target: T5, human glucagon receptor (GcgR) (Homo sapiens, UniProt P47871); assay: Radioligand competition binding (SPA), human GcgR membranes; settings: HEK293 membranes, SPA, bacitracin present; mean; read-out: Ki, GcgR
T5 construct: expressed in transfected cells; host or cells: HEK293 (membranes)
T5 sequence (P47871 26-477): as the sequence (P47871 26-477) above
Source text: as §1, §2

| Compound | EC50 (hGcgR) [pM] | Ki (GLP-1 receptor (GLP-1R)) [pM] | EC50 (hGIPR) [pM] | CL/F (in vivo) [mL/min/kg] | Tmax (in vivo) [h] | half-life (in vivo) [h] | EC50 (hGLP-1R) [pM] | Ki [1] [pM] | AUCINF_D_obs [2] [hr*kg*nmol/L/nmol] | Ki [3] [pM] |
| --- | --- | --- | --- | --- | --- | --- | --- | --- | --- | --- |
| CC[C@H](C)[C@H](NC(=O)[C@H](Cc1ccccc1)NC(=O)[C@H](C)NC(=O)[C@](C)(CCCCN)NC(=O)[C@H](CCC(N)=O)NC(=O)[C@H](C)NC(=O)[C@H](CCCCNC(=O)COCCOCCNC(=O)COCCOCCNC(=O)CC[C@H](NC(=O)CCCCCCCCCCCCCCCCCCC(=O)O)C(=O)O)NC(=O)[C@H](CCCCN)NC(=O)[C@H](CC(=O)O)NC(=O)[C@H](CC(C)C)NC(=O)[C@](C)(CC(C)C)NC(=O)[C@@H](NC(=O)[C@H](CO)NC(=O)[C@H](Cc1ccc(O)cc1)NC(=O)[C@H](CC(=O)O)NC(=O)[C@H](CO)NC(=O)[C@@H](NC(=O)[C@H](Cc1ccccc1)NC(=O)[C@@H](NC(=O)CNC(=O)[C@H](CCC(N)=O)NC(=O)C(C)(C)NC(=O)[C@@H](N)Cc1ccc(O)cc1)[C@@H](C)O)[C@@H](C)O)[C@@H](C)CC)C(=O)N[C@@H](CCC(=O)O)C(=O)N[C@@H](Cc1ccc(O)cc1)C(=O)N[C@@H](CC(C)C)C(=O)N[C@@H](CC(C)C)C(=O)N[C@@H](C)C(=O)NC(C)(C)C(=O)NCC(=O)N1CCC[C@H]1C(=O)N[C@@H](CO)C(=O)N[C@@H](CO)C(=O)NCC(=O)N[C@@H](C)C(=O)N1CCC[C@H]1C(=O)N1CCC[C@H]1C(=O)N1CCC[C@H]1C(=O)N[C@@H](CO)C(N)=O [Example 1] (H-Y[Aib]QGTFTSDYSI[αMeL]LDKK([AEEA-AEEA-γGlu-C20 diacid])AQ[αMeK]AFIEYLLA[Aib]GPSSGAPPPS-NH2; N-terminus assumed) | 114 | 2640 | 52.3 | 0.173 | 8 | 11.7 | 153 | 46.9 | 95.7 | 8410 |
| CC[C@H](C)[C@H](NC(=O)[C@H](Cc1ccccc1)NC(=O)[C@H](C)NC(=O)C(C)(C)NC(=O)[C@H](CCC(N)=O)NC(=O)[C@H](C)NC(=O)[C@H](CCCCNC(=O)COCCOCCNC(=O)COCCOCCNC(=O)CC[C@H](NC(=O)CCCCCCCCCCCCCCCCCCC(=O)O)C(=O)O)NC(=O)[C@H](CCCCN)NC(=O)[C@H](CC(=O)O)NC(=O)[C@H](CC(C)C)NC(=O)[C@H](CC(C)C)NC(=O)[C@@H](NC(=O)[C@H](CO)NC(=O)[C@H](Cc1ccc(O)cc1)NC(=O)[C@H](CC(=O)O)NC(=O)[C@H](CO)NC(=O)[C@@H](NC(=O)[C@H](Cc1ccccc1)NC(=O)[C@@H](NC(=O)CNC(=O)[C@H](CCC(N)=O)NC(=O)C(C)(C)NC(=O)[C@@H](N)Cc1ccc(O)cc1)[C@@H](C)O)[C@@H](C)O)[C@@H](C)CC)C(=O)N[C@@H](CCC(=O)O)C(=O)N[C@@H](Cc1ccc(O)cc1)C(=O)N[C@@H](CC(C)C)C(=O)N[C@@H](CC(C)C)C(=O)N[C@@H](C)C(=O)NC(C)(C)C(=O)NCC(=O)N1CCC[C@H]1C(=O)N[C@@H](CO)C(=O)N[C@@H](CO)C(=O)NCC(=O)N[C@@H](C)C(=O)N1CCC[C@H]1C(=O)N1CCC[C@H]1C(=O)N1CCC[C@H]1C(=O)N[C@@H](CO)C(N)=O [Example 15] (H-Y[Aib]QGTFTSDYSILLDKK([AEEA-AEEA-γGlu-C20 diacid])AQ[Aib]AFIEYLLA[Aib]GPSSGAPPPS-NH2; N-terminus assumed) | 131 | 5800 | 68.9 |  |  |  | 253 | 97.2 |  | 4560 |
| CC[C@H](C)[C@H](NC(=O)[C@H](Cc1ccccc1)NC(=O)[C@H](C)NC(=O)C(C)(C)NC(=O)[C@H](CCC(N)=O)NC(=O)[C@H](C)NC(=O)[C@H](CCCCNC(=O)COCCOCCNC(=O)COCCOCCNC(=O)CC[C@H](NC(=O)CCCCCCCCCCCCCCCCCCC(=O)O)C(=O)O)NC(=O)[C@H](CCCCN)NC(=O)[C@H](CC(=O)O)NC(=O)[C@H](CC(C)C)NC(=O)[C@H](CC(C)C)NC(=O)[C@@H](NC(=O)[C@H](CO)NC(=O)[C@H](Cc1ccc(O)cc1)NC(=O)[C@H](CC(=O)O)NC(=O)[C@H](CO)NC(=O)[C@@H](NC(=O)[C@H](Cc1ccccc1)NC(=O)[C@@H](NC(=O)CNC(=O)[C@H](CCC(N)=O)NC(=O)C(C)(C)NC(=O)[C@@H](N)Cc1ccc(O)cc1)[C@@H](C)O)[C@@H](C)O)[C@@H](C)CC)C(=O)N[C@@H](CCC(=O)O)C(=O)N[C@@H](Cc1ccc(O)cc1)C(=O)N[C@@H](CC(C)C)C(=O)N[C@@H](CC(C)C)C(=O)N[C@@H](CCC(=O)O)C(=O)NC(C)(C)C(=O)NCC(=O)N1CCC[C@H]1C(=O)N[C@@H](CO)C(=O)N[C@@H](CO)C(=O)NCC(=O)N[C@@H](C)C(=O)N1CCC[C@H]1C(=O)N1CCC[C@H]1C(=O)N1CCC[C@H]1C(=O)N[C@@H](CO)C(N)=O [Example 17] (H-Y[Aib]QGTFTSDYSILLDKK([AEEA-AEEA-γGlu-C20 diacid])AQ[Aib]AFIEYLLE[Aib]GPSSGAPPPS-NH2) | 135 | 10200 | 43.9 |  |  |  | 153 | 89.5 |  | 5810 |
| CC[C@H](C)[C@H](NC(=O)[C@H](Cc1ccccc1)NC(=O)[C@H](C)NC(=O)C(C)(C)NC(=O)[C@H](CCC(N)=O)NC(=O)[C@H](C)NC(=O)[C@H](CCCCNC(=O)COCCOCCNC(=O)CC[C@H](NC(=O)CC[C@H](NC(=O)CCCCCCCCCCCCCCCCCCC(=O)O)C(=O)O)C(=O)O)NC(=O)[C@H](CCCCN)NC(=O)[C@H](CC(=O)O)NC(=O)[C@H](CC(C)C)NC(=O)[C@H](CC(C)C)NC(=O)[C@@H](NC(=O)[C@H](CO)NC(=O)[C@H](Cc1ccc(O)cc1)NC(=O)[C@H](CC(=O)O)NC(=O)[C@H](CO)NC(=O)[C@@H](NC(=O)[C@H](Cc1ccccc1)NC(=O)[C@@H](NC(=O)CNC(=O)[C@H](CCC(N)=O)NC(=O)C(C)(C)NC(=O)[C@@H](N)Cc1ccc(O)cc1)[C@@H](C)O)[C@@H](C)O)[C@@H](C)CC)C(=O)N[C@@H](CCC(=O)O)C(=O)N[C@@H](Cc1ccc(O)cc1)C(=O)N[C@@H](CC(C)C)C(=O)N[C@@H](CC(C)C)C(=O)N[C@@H](CCC(=O)O)C(=O)NC(C)(C)C(=O)NCC(=O)N1CCC[C@H]1C(=O)N[C@@H](CO)C(=O)N[C@@H](CO)C(=O)NCC(=O)N[C@@H](C)C(=O)N1CCC[C@H]1C(=O)N1CCC[C@H]1C(=O)N1CCC[C@H]1C(=O)N[C@@H](CO)C(N)=O [Example 19] (H-Y[Aib]QGTFTSDYSILLDKK([AEEA-γGlu-γGlu-C20 diacid])AQ[Aib]AFIEYLLE[Aib]GPSSGAPPPS-NH2; N-terminus assumed) | 87.4 | 12000 | 45.5 |  |  |  | 143 | 78.9 |  | 5200 |
| CC[C@H](C)[C@H](NC(=O)[C@H](Cc1ccccc1)NC(=O)[C@H](C)NC(=O)C(C)(C)NC(=O)[C@H](CCC(N)=O)NC(=O)[C@H](C)NC(=O)[C@H](CCCCNC(=O)COCCOCCNC(=O)CC[C@H](NC(=O)CCCCCCCCCCCCCCCCCCC(=O)O)C(=O)O)NC(=O)[C@H](CCCCN)NC(=O)[C@H](CC(=O)O)NC(=O)[C@H](CC(C)C)NC(=O)[C@H](CC(C)C)NC(=O)[C@@H](NC(=O)[C@H](CO)NC(=O)[C@H](Cc1ccc(O)cc1)NC(=O)[C@H](CC(=O)O)NC(=O)[C@H](CO)NC(=O)[C@@H](NC(=O)[C@H](Cc1ccccc1)NC(=O)[C@@H](NC(=O)CNC(=O)[C@H](CCC(N)=O)NC(=O)C(C)(C)NC(=O)[C@@H](N)Cc1ccc(O)cc1)[C@@H](C)O)[C@@H](C)O)[C@@H](C)CC)C(=O)N[C@@H](CCC(=O)O)C(=O)N[C@@H](Cc1ccc(O)cc1)C(=O)N[C@@H](CC(C)C)C(=O)N[C@@H](CC(C)C)C(=O)N[C@@H](CCC(=O)O)C(=O)NC(C)(C)C(=O)NCC(=O)N1CCC[C@H]1C(=O)N[C@@H](CO)C(=O)N[C@@H](CO)C(=O)NCC(=O)N[C@@H](C)C(=O)N1CCC[C@H]1C(=O)N1CCC[C@H]1C(=O)N1CCC[C@H]1C(=O)N[C@@H](CO)C(N)=O [Example 20] (H-Y[Aib]QGTFTSDYSILLDKK([AEEA-γGlu-C20 diacid])AQ[Aib]AFIEYLLE[Aib]GPSSGAPPPS-NH2; N-terminus assumed) | 64.1 | 9230 | 57.2 |  |  |  | 149 | 109 |  | 3760 |
